Legend:
[1] = Determination of the ratios of enantiomers of chiral metabolites in human milk on chiral GC capillaries; type: in vivo
Source text: The separation of the chiral metabolites of 1,8-cineole was successfully achieved using different β- or γ-cyclodextrin-based stationary phases (Rt-bDEXsa, Rt-bDEXse, Rt-bDEXsm and Rt-yDEXsa) for gas chromatographic analysis. Table S1, in the supplementary material, lists the usable separation phases and the respective retention indices (determined according to van den Dool and Kratz) for each pair of enantiomers. It was therefore decided to use the following capillaries for the analysis of the human milk samples: Rt-bDEXsm for separation of 2,3-dehydro-, α2,3-epoxy-, 2-oxo-, 3-oxo- and 9-hydroxy-1,8-cineole, and Rt-yDEXsa for separation of α2-hydroxy-, α3-hydroxy- and β2-hydroxy-1,8-cineole, under the GC conditions described in the experimental section.
For GC-MS analyses, an Agilent MSD quadrupole system (GC 7890A with MSD 5975C, Agilent Technologies, Waldbronn, Germany) coupled with a CIS 4C (cooled injection system) and an MPS 2 auto-sampler (Gerstel GmbH & Co. KG, Duisburg, Germany) were used. Data collection and analysis were performed with the MSD ChemStation E.02.00.493 (Agilent Technologies, Inc.) software. Quantification experiments were carried out on DB-FFAP and DB-5 capillaries (30 m length, 0.25 mm inner diameter, 0.25 µm film thickness, Agilent J&W GC Columns, USA), and for monitoring of the ratio of enantiomers the chiral capillaries Rt-bDEXsa, Rt-bDEXse, Rt-bDEXsm and Rt-yDEXsa (30 m length, 0.32 mm inner diameter, 0.25 µm film thickness, Restek GmbH, Bad Homburg, Germany) were utilised. Pre-columns of uncoated, deactivated fused silica (0.53 mm inner diameter, 0.5 to 3.5 m length) were used to ensure that no potentially present low-volatile residues could contaminate the analytical capillaries. The temperature programme of the column oven was as follows: 40 °C for 2 min, 4 °C/min up to 170 °C, 40 °C/min up to 230 °C (Rt-DEX capillaries), 240 °C (DB-FFAP) and 250 °C (DB-5), respectively, and hold time at end temperature of 5 to 10 min. As carrier gas, helium was used at a flow rate of 1.3 mL/min (velocity 41.1 cm/s). Injection of 1 or 2 µL was performed by the auto-sampler.
For the separation of the pairs of enantiomers of the chiral metabolites of 1,8-cineole, four different capillaries (Rt-bDEXsa, Rt-bDEXse, Rt-bDEXsm, and Rt-yDEXsa) were evaluated for optimisation of the peak-to-peak resolution of the enantiomers by injecting a mixture of all the metabolites in a dichloromethane solution and by varying the heating rate. Besides the separation of each pair of enantiomers from each other, it was also important to confirm that no other metabolite coeluted with any one of the enantiomers, because the milk samples would most probably contain all metabolites. Moreover, the separation conditions for the mixture of reference substances were also tested on some human milk sample extracts and modified accordingly, where necessary, to avoid coelution with interfering matrix compounds.
For calculation of the ratio of enantiomers (that is, the relative abundance of each enantiomer to the not separated mixture of enantiomers), the peak area of each enantiomer was divided by the sum of the peak areas of both enantiomers and multiplied by 100. With the known concentrations of the chiral metabolites in each milk sample, the absolute concentration of each single enantiomer was also calculated by multiplying the concentration with the respective percentage.

[2] = design: method as in PMID 20425757; details: one volunteer, sage tea, overall intake 1.02 mg 1,8-cineole; cited from earlier work

Enantiomeric ratio in human milk [1]: nearly enantiomerically pure
Percentage E1 in single sample (outlier) ([1]; human milk sample B-2a, excluded from Table 3): 40.5%
Percentage E1, range as described for boxplot ([1]; human milk samples, Figure 5): under 10%
SMILES: CC1(C)OC2(C)CCC1CC2O (stereo not drawn) [a2-hydroxy-1,8-cineole, α2-hydroxy-1,8-cineole]
Concentration in plasma [2]: 14.62 ng/mL
